Values of other authors, collected in patent US12503489B2, “Method for producing antibody-drug conjugate” (DAIICHI SANKYO COMPANY, LIMITED, priority 2017, dated 2025).

Biological target: T1, topoisomerase I (Homo sapiens, UniProt P11387)
T1 sequence (P11387 1-765): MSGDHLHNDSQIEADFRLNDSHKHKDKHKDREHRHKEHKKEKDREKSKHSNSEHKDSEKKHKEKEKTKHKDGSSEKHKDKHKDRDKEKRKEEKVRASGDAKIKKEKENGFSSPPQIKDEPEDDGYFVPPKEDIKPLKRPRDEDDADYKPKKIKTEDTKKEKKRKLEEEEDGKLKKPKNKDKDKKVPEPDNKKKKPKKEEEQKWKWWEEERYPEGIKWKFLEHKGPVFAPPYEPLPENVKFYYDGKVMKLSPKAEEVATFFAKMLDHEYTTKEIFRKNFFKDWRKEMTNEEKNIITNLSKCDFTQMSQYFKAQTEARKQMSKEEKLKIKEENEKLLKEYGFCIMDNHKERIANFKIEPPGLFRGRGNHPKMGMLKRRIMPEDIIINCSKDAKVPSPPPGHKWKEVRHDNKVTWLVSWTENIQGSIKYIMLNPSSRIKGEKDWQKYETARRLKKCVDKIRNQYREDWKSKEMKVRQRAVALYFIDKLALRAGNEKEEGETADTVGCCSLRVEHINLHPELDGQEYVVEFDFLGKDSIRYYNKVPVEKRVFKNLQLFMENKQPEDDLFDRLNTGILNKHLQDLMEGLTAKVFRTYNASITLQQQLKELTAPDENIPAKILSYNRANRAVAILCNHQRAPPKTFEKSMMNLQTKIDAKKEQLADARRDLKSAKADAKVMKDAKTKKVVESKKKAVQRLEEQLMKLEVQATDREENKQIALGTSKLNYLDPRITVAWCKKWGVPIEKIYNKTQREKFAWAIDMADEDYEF
Settings: Ogitani Y. et al., Clinical Cancer Research 2016; 22 (20): 5097-5108

In the case of `CC[C@@]1(O)C(=O)OCc2c1cc1n(c2=O)Cc2c-1nc1cc(F)c(C)c3c1c2[C@@H](NC(=O)CO)CC3` [formula (22)], the “topoisomerase I inhibitory effect” value is given as “confirmed to have a topoisomerase I inhibitory effect”.
